Assay results published in ChEMBL document CHEMBL1201862, “PubChem BioAssay data set” (2004).
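These data come from cells grown in 96-well plates and exposed to compound for 48 hours at five concentrations. GI50 marks 50% less growth.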 The source made the active and inactive calls. Cut-off read from the data, not from the text of the source: active = GI50 up to about 1.1 µM and inactive = higher.

Assays:
Experiment in all cases: DTP human tumour cell line panel, 48 h
BT-549 = system: BT-549
HCC 2998 = system: HCC 2998
HL-60 = system: HL-60
Hs-578T = system: Hs-578T
KM12 = system: KM12
MCF7 = system: MCF7
MDA-MB-231 = system: MDA-MB-231
NCI-H23 = system: NCI-H23
NCI/ADR-RES = system: NCI/ADR-RES
OVCAR-3 = system: OVCAR-3
PC-3 = system: PC-3
RPMI-8226 = system: RPMI-8226
SF-295 = system: SF-295
SNB-75 = system: SNB-75
T47D = system: T47D
UACC-62 = system: UACC-62

Compound | GI50 (BT-549) | GI50 (HCC 2998) | GI50 (HL-60) | GI50 (Hs-578T) | GI50 (KM12) | GI50 (MCF7) | GI50 (MDA-MB-231) | GI50 (NCI-H23) | GI50 (NCI/ADR-RES) | GI50 (OVCAR-3) | GI50 (PC-3) | GI50 (RPMI-8226) | GI50 (SF-295) | GI50 (SNB-75) | GI50 (T47D) | GI50 (UACC-62)
CC(C)C1=CCC2C(=C1)CCC1C(C)(C(=O)O)CCCC21C (centres undefined) | > 100 µM (inactive) | > 100 µM (inactive) | 14.2 µM (inactive) | > 100 µM (inactive) | 92.3 µM (inactive) | > 100 µM (inactive) | > 100 µM (inactive) | 81.1 µM (inactive) | 76.2 µM (inactive) | > 100 µM (inactive) | > 100 µM (inactive) | 19.9 µM (inactive) | 97.7 µM (inactive) | > 100 µM (inactive) | > 100 µM (inactive) | > 100 µM (inactive)
CN(/N=C/c1ccccc1C(=O)O)C1=NCCCCN1 | > 100 µM (inactive) | > 100 µM (inactive) | > 100 µM (inactive) | > 100 µM (inactive) | > 100 µM (inactive) | > 100 µM (inactive) | > 100 µM (inactive) | > 100 µM (inactive) | > 100 µM (inactive) | > 100 µM (inactive) | > 100 µM (inactive) | > 100 µM (inactive) | > 100 µM (inactive) | > 100 µM (inactive) | > 100 µM (inactive) | > 100 µM (inactive)
C/C=C/[P+](c1ccccc1)(c1ccccc1)c1ccccc1 | 0.277 µM (active) | 0.24 µM (active) | 0.78 µM (active) | 0.337 µM (active) | 0.277 µM (active) | 1.18 µM (inactive) | 2.58 µM (inactive) | 2.06 µM (inactive) | > 100 µM (inactive) | 0.54 µM (active) | 0.962 µM (active) | 0.0413 µM (active) | 2.26 µM (inactive) | 3.48 µM (inactive) | 0.163 µM (active) | 1.71 µM (inactive)
O=C1Nc2ccccc2/C1=N/Nc1ccccc1Cl | > 100 µM (inactive) | 81.1 µM (inactive) | 68.1 µM (inactive) | 22.3 µM (inactive) | 63.1 µM (inactive) | > 100 µM (inactive) | 10.3 µM (inactive) | 42.8 µM (inactive) | 44.6 µM (inactive) | 26.6 µM (inactive) | > 100 µM (inactive) | 64.9 µM (inactive) | 32.1 µM (inactive) | 22.1 µM (inactive) | 12.5 µM (inactive) | 89.3 µM (inactive)
CCCCCCCCCCCCCCCCOCC(Cl)CP(=O)(O)OP(=O)(O)OCC1OC(n2cnc3c(N)ncnc32)C(O)C1O (centres undefined) | > 100 µM (inactive) | > 100 µM (inactive) | > 100 µM (inactive) | > 100 µM (inactive) | > 100 µM (inactive) | > 100 µM (inactive) | > 100 µM (inactive) | > 100 µM (inactive) | > 100 µM (inactive) | > 100 µM (inactive) | > 100 µM (inactive) |  |  | > 100 µM (inactive) | > 100 µM (inactive) | > 100 µM (inactive)
Cc1ccc2c(O)cc(-c3ccc(Cl)cc3)nc2n1 | 2.38 µM (inactive) | 6.65 µM (inactive) | 2.69 µM (inactive) | 11.9 µM (inactive) | 4.57 µM (inactive) | 3.35 µM (inactive) | 5.52 µM (inactive) | 27.2 µM (inactive) | 8.89 µM (inactive) | 3.1 µM (inactive) | 2.96 µM (inactive) | 1.87 µM (inactive) | 4.59 µM (inactive) | 8.24 µM (inactive) | 0.764 µM (active) | 5.15 µM (inactive)
